Molecules are shown by their SMILES. Active and inactive are the calls of the source. Cut-off read from the data, not from the text of the source: active = AC50 below about 11 µM. Peptide text beside a SMILES is read from it. * marks the point of attachment. Cbz = O=C(OCc1ccccc1)*

The subject of the assay is B cell line, TNFa signaling counterscreen reporter. Description: TNFa pathway inhibition counter-screen, B-lineage cells – dose response (AID 1259334).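 Note: cells stimulated with TNFa after compound preincubation.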
In the case of `C[C@H](CO)N1C[C@H](C)[C@H](CN(C)C(=O)Nc2cccc(Cl)c2Cl)OCc2ccccc2-c2c(n(C)c3ccccc23)C1=O`, the AC50 was 2.81 µM.

For the compound `COc1ccc(CC2C(=O)NC(C)C(=O)N(C)C3Cc4ccc(cc4)Oc4cc(ccc4O)CC(C(=O)NC(C)C(=O)NC(C)C(=O)N2C)N(C)C3=O)cc1` (configuration not stated), the AC50 was 0.00464 µM.

Regarding `Cc1ccc(S(=O)(=O)C=CS(=O)(=O)c2ccc(C)cc2)cc1`, the half-maximal activity concentration (AC50) is 1.22 µM. Regarding `CC1=C(SCCO)C(=O)c2ccccc2C1=O`, the half-maximal activity concentration (AC50) is 2.22 µM.

Regarding `Cc1cnc(NC(=O)c2ccc(OCC3CCCO3)cc2)s1` (configuration not stated), the AC50 was 4.02 µM. With `N#CC(C#N)=NNc1cccc(Cl)c1` the figure was 9.25 µM; with `Cn1cnc([N+](=O)[O-])c1S(=O)(=O)Oc1cccc2ccccc12`, 0.397 µM. With `COc1ccc(C=Cc2ccc3ccccc3n2)c(OC)c1` the figure was 3.48 µM; with `Oc1cc2c(cc1C(c1ccc(Br)cc1)N1CCCC1)OCO2` (configuration not stated), 6.97 µM.

As to `Clc1ccc(COC(Cn2ccnc2)c2ccc(Cl)cc2Cl)c(Cl)c1` (configuration not stated), the half-maximal activity concentration (AC50) is 8.2 µM. With `CC(=O)O[C@@H]1C[C@@]2(C)[C@H](c3ccoc3)C[C@H]3O[C@]32[C@]2(C)C(=O)C(=O)C3C(C)(C)C(=O)C=C[C@]3(C)C12` (some centres not stated), the AC50 is 1.22 µM. As for `COc1ccc2cc(-c3cc(C(=O)O)c4ccccc4n3)ccc2c1`, the AC50 was 6.93 µM. As to `CCCCCCCCCCCCCCCC[n+]1ccccc1`, the AC50 is 0.119 µM.

`Cc1noc(C)c1S(=O)(=O)Nc1ccc2c(c1)CC(=O)N([C@@H](C)CO)C[C@@H](C)[C@@H](CN(C)Cc1ccc(Oc3ccccc3)cc1)O2`: the AC50 was 7.01 µM. As to `Clc1ccc(C(Cn2ccnc2)OCc2ccsc2Cl)c(Cl)c1` (configuration not stated), the AC50 is 4.05 µM. Then `COc1ccc(-c2ccc([C@H]3[C@@H](C#N)N(C(=O)c4cccc(F)c4)[C@H]3CO)cc2)cc1`, with > 22 µM (inactive); and `CC12CCC3C(CCC4(O)CC(O)CCC34C=NO)C1(O)CCC2C1=COC(=O)C1` (configuration not stated), with 0.6 µM. With `CC[C@@]1(O)C(=O)OCc2c1cc1n(c2=O)Cc2cc3c(CN(C)C)c(O)ccc3nc2-1` the figure was 1.01 µM. With `COc1ccc(C(=O)/C=C/C(=O)N(CC(=O)NC2CCCCC2)Cc2ccc(F)cc2)c(O)c1` the figure was 5.1 µM; with `CC1OC(OC2C(O)CC(OC3C(O)CC(OC4CCC5(C)C(CCC6C5CCC5(C)C(C7=CC(=O)OC7)C(O)CC65O)C4)OC3C)OC2C)CC(O)C1O` (configuration not stated), 0.745 µM; with `COCC(C)n1c(C)cc(C(=O)COC(=O)c2cccn2C)c1C` (configuration not stated), 0.76 µM. For the compound `CCN1C(=O)C(CC(=O)Nc2ccc(F)cc2)N(Cc2ccco2)C1=S` (configuration not stated), the AC50 was > 20 µM (inactive). With `C[C@H](CO)N1C[C@H](C)[C@H](CN(C)CC2CCCCC2)OCCCC[C@H](C)Oc2ccc(NC(=O)Nc3ccc(C(F)(F)F)cc3)cc2C1=O`, the AC50 was 7.26 µM. For the compound `O=C(C1CC1)N1C[C@@H]2N[C@H](C1)C2c1ccc(-c2cccc(F)c2)cc1` (some centres not stated), the AC50 was 5.96 µM. With `O=C1NC2c3c(I)sc(I)c3C(=O)C2O1` (configuration not stated) the figure was 3.87 µM; with `CC1(C)C(=O)C=C[C@@]2(C)C1C[C@@H](O)[C@]1(C)C2CC[C@@]2(C)[C@H](c3ccoc3)OC(=O)[C@H]3O[C@]321` (some centres not stated), 11.3 µM. Then `N#Cc1cccc(-c2ccc([C@@H]3[C@@H]4CN(S(=O)(=O)c5ccc(-c6ccccc6)cc5)C[C@H]3N4)cc2)c1`, with 11.4 µM. Consider `CC(NCC(O)COCCC12CC3CC(CC(C3)C1)C2)c1ccccc1` (configuration not stated), for which the AC50 was 4.1 µM. In the case of `CC(C)C[C@@H](C=O)NC(=O)[C@H](CC(C)C)NC(=O)[C@H](CC(C)C)NC(=O)OCc1ccccc1` (Cbz-Leu-Leu-Leu-aldehyde), the half-maximal activity concentration (AC50) was 3.82 µM. With `CC1=C(C#N)c2nc(N)c(C#N)c(C)c2/C1=C\c1ccccc1`, the AC50 is 3.57 µM. With `CC[C@@]1(O)C(=O)OCc2c1cc1n(c2=O)Cc2cc3cc(O)ccc3nc2-1` the figure was 1.13 µM; with `OC(c1cc(-c2cccc(Cl)c2)nc2ccccc12)C1CCCCN1` (configuration not stated), 2.26 µM; with `CN(C)C(=S)SSC(=S)N(C)C`, 0.0358 µM. With `CC(=O)OCC(=O)C1(O)CCC2C3CCC4=CC(=O)CCC4(C)C3(Cl)C(O)CC21C` (configuration not stated) the figure was > 20 µM (inactive). Consider `C[C@H](CO)N1C[C@H](C)[C@@H](CN(C)Cc2ccc(Cl)c(Cl)c2)OCCCC[C@H](C)Oc2ccc(NS(=O)(=O)c3cccs3)cc2C1=O`, for which the concentration at half-maximal activity (AC50) is 8.48 µM.

With `O=C(O)c1ccc(Nc2nc3c(s2)CCCC3)cc1`, the concentration at half-maximal activity (AC50) is 5.3 µM. With `Cc1ccc(CN2CC(C(=O)Nc3ncc(C)s3)CC2=O)cc1` (configuration not stated) the figure was 4.2 µM. For the compound `CC(=O)OC1CCC2(C)C(CCC3C4CC=C(C(C)=O)C4(C)OC(=O)CC32)C1` (configuration not stated), the concentration at half-maximal activity (AC50) was 1.65 µM. As for `c1ccc2nc(-c3nc4ccccc4o3)ccc2c1`, the AC50 was 6.02 µM. Regarding `O=C(C1CCOCC1)N1CC(=O)N2[C@H](C1)[C@H](c1ccc(C#CCc3ccccc3)cc1)[C@@H]2CO`, the AC50 is 1.6 µM. For `C=C1C(=O)OC2C=C(CO)C3OC3C3OC3(C)CC(OC(=O)/C(=C/C)COC(C)=O)C12` (configuration not stated), the half-maximal activity concentration (AC50) is 1.67 µM. On to `CCCCNC(=O)C1(C)CCN1C(=O)c1cc(-c2cccs2)oc1C` (configuration not stated), for which the concentration at half-maximal activity (AC50) is 2.59 µM. With `CC1(C)C(=O)C=C[C@@]2(C)C1C=C[C@]1(C)C2CC[C@@]2(C)[C@H](c3ccoc3)OC(=O)[C@H]3O[C@]321` (some centres not stated) the figure was 4.98 µM; with `O=C(C[C@@H]1CC[C@@H]2[C@H](COC[C@H](O)CN2Cc2cc(F)ccc2F)O1)NCc1ccc(Oc2ccccc2)cc1`, 5.02 µM.

On to `CCN1/C(=C/c2sc(-c3ccccc3C)c[n+]2C)Sc2ccccc21`, for which the half-maximal activity concentration (AC50) is 0.574 µM.

For the compound `CC(=O)OC(C)(C)/C=C/C(=O)C(C)(O)C1C(O)CC2(C)C3CC=C4C(CC(O)C(=O)C4(C)C)C3(C)C(=O)CC12C` (configuration not stated), the AC50 is 0.029 µM.

Turning to `C[C@H]1CN([C@@H](C)CO)C(=O)c2cccc(NC(=O)Nc3ccc(F)cc3)c2O[C@H]1CN(C)S(=O)(=O)c1ccc(Cl)cc1`, the half-maximal activity concentration (AC50) was 5.13 µM.

As to `CCN(CC)C(=O)c1ccc(NC(=O)Nc2ccccc2F)cc1`, the AC50 is 1.86 µM. With `CC(C)=CCc1c2c(c3occ(-c4ccc(O)c(O)c4)c(=O)c3c1O)C=CC(C)(C)O2` the figure was 8.15 µM. With `Cc1c(C(=O)c2cccc3ccccc23)c2cccc3c2n1[C@H](CN1CCOCC1)CO3` the figure was 10.2 µM; with `CCC(C)[C@H]1O[C@]2(CC[C@@H]1C)C[C@@H]1C[C@@H](C/C=C(\C)[C@@H](OC3C[C@H](OC)C(O[C@H]4C[C@H](OC)[C@@H](O)[C@H](C)O4)[C@H](C)O3)[C@@H](C)/C=C/C=C3\CO[C@@H]4[C@H](O)C(C)=C[C@@H](C(=O)O1)[C@]34O)O2` (some centres not stated), > 20 µM (inactive); with `Cc1noc(C)c1S(=O)(=O)N(C)C[C@@H]1OCc2ccccc2-c2c(n(C)c3ccccc23)C(=O)N([C@@H](C)CO)C[C@@H]1C`, 10.2 µM. With `Cc1ccc(N2CC(C(=O)Nc3nccs3)CC2=O)cc1Cl` (configuration not stated) the figure was 8.13 µM; with `CC(C)Cc1ccc(C(C)/C=C2/CCC(CN3CCCCC3)C2=O)cc1` (configuration not stated), 8.62 µM; with `Nc1ccc(-c2cccc3c(=O)cc(N4CCOCC4)oc23)cc1`, 8.56 µM. As for `COc1cc(C(=O)CCN2CCC(c3ccccc3)C2)cc(OC)c1OC` (configuration not stated), the AC50 was 4.66 µM.

Turning to `O=C(COC(=O)c1ccccc1)c1ccc2c(c1)OCCO2`, the half-maximal activity concentration (AC50) was 0.986 µM. For `N#C[C@@H]1[C@H](c2ccc(C#Cc3ccc(F)cc3)cc2)[C@@H](CO)N1C(=O)C1CCC1`, the half-maximal activity concentration (AC50) was 10.7 µM. On to `CCOC(=O)c1c(SCCN2CCCC2)n(-c2ccccc2)c(=S)n(-c2ccccc2)c1=O`, for which the AC50 was 4.78 µM. With `CC(C)c1c(O)ccc2c1CCC1C(C)(C)CCC[C@]21C` (some centres not stated) the figure was 5.43 µM; with `CCOc1ncccc1C(=O)OC(C)C(=O)Nc1ccc(Cl)cn1` (configuration not stated), 10.3 µM; with `Oc1ccc2c(c1)OCC1(O)Cc3cc(O)c(O)cc3C21` (configuration not stated), 2.18 µM. Regarding `CC1(C)C(=O)C=C[C@@]2(C)C1C(=O)C(=O)[C@]1(C)C2CC[C@@]2(C)[C@H](c3ccoc3)C[C@H]3O[C@]321` (some centres not stated), the AC50 was 1.74 µM. Take `CC(=NNc1ccc2ccccc2n1)c1ccccc1O`: the concentration at half-maximal activity (AC50) was 1.52 µM.

Take `COc1cc2c(cc1OC)C(=O)C(Br)CC2` (configuration not stated): the AC50 was 2.97 µM. In the case of `CC(C)(C)CC(C)(C)c1ccc(OCCOCC[N+](C)(C)Cc2ccccc2)cc1`, the concentration at half-maximal activity (AC50) is 1.75 µM. Take `O=C1NC2c3c(Cl)sc(Cl)c3C(=O)C2O1` (configuration not stated): the AC50 was 4.18 µM.

Consider `C[C@@H]1CN([C@H](C)CO)C(=O)c2c(c3ccccc3n2C)-c2ccccc2CO[C@@H]1CN(C)C(=O)c1cc(Cl)cc(Cl)c1`, for which the concentration at half-maximal activity (AC50) is 8.14 µM. With `CCCCCCCCCc1ccc(OCCOCCOCCOCCOCCOCCOCCOCCOCCO)cc1` the figure was 4.58 µM; with `C[C@H](CO)N1C[C@H](C)[C@H](CN(C)S(=O)(=O)c2ccc([N+](=O)[O-])cc2)OCc2ccccc2-c2c(n(C)c3ccccc23)C1=O`, 9.88 µM. Then `O=C(/C=C/c1cccs1)c1ccc(N2CCOCC2)cc1`, with 3.87 µM; and `CCCNC(=O)N1[C@H](C#N)[C@H](c2ccc(C#Cc3cccc(F)c3)cc2)[C@H]1CO`, with 8.92 µM. With `N#C[C@H]1[C@H](c2ccc(C#Cc3ccccc3F)cc2)[C@@H](CO)N1C(=O)C1CCC1` the figure was > 20 µM (inactive); with `COc1ccc2c3c([nH]c2c1)[C@H](CO)N(C(=O)Nc1ccc(F)cc1)CC31CN(Cc2cc(F)ccc2F)C1`, > 20 µM (inactive); with `O=C(Cc1ccccc1)N1CC[C@@H]2[C@H]1c1cc(C#Cc3cccc(F)c3)ccc1N[C@@H]2CO`, 6.03 µM. For the compound `COc1cccc2c1C(=O)c1c(O)c3c(c(O)c1C2=O)C[C@@](O)(C(C)=O)C[C@@H]3O[C@H]1C[C@H](N)[C@H](O)[C@H](C)O1`, the concentration at half-maximal activity (AC50) is 0.359 µM.

For the compound `CC1=CC(C)(C)N=C(Nc2nc(C)c3cc(C)cc(C)c3n2)N1`, the half-maximal activity concentration (AC50) was 2.49 µM. With `COC(=O)C1=C(C)NC(C)=C(C(=O)OCCCN2CCC(c3ccccc3)(c3ccccc3)CC2)[C@H]1c1cccc([N+](=O)[O-])c1` the figure was 4.12 µM. With `O=C1c2c(O)ccc(O)c2C(=O)c2c(NCCNCCO)ccc(NCCNCCO)c21` the figure was 1.18 µM; with `COc1ccccc1NC(c1cccnc1)c1ccc2cccnc2c1O` (configuration not stated), 8.22 µM; with `CC(C)[C@H](CO)Nc1nc(Nc2cccc(Cl)c2)c2ncn(C(C)C)c2n1`, 3.58 µM. With `CC(C)(C)NCC(=Cc1ccccc1)C(=O)c1ccccc1` the figure was 2.84 µM.

For the origin of these results see PubChem BioAssay AID1259334 (Broad Institute, 2017).
